Here are results for one molecule from patent US9249125B2, “Pyrazole derivatives as p38 MAP inhibitors” (RESPIVERT LIMITED, priority 2012, dated 2016).

Each structure is given as a SMILES string.

One data set has as its system RSV A2. The data set is described as follows: RSV induced F-protein expression in primary bronchial epithelial cells. As to conditions: human respiratory syncytial virus, Primary bronchial epithelial cell, read-out: RSV induced F-protein in HBECs IC50. It is filed as cell-based, respiratory syncytical virus. The procedure: Normal human bronchial epithelial cells (NHBEC) grown in 96 well plates are infected with RSV A2 (Strain A2, HPA, Salisbury, UK) at an MOI of 0.001 in the LHC8 Media:RPMI-1640 (50:50) containing 15 mM magnesium chloride and incubated for 1 hr at 37° C. for adsorption. The cells are then washed with PBS (3×200 μL), fresh media (200 μL) is added and incubation continued for 4 days. Where appropriate, cells are pre-incubated with the compound or DMSO for 2 hr, and then added again after washout of the virus.
The cells are fixed with 4% formaldehyde in PBS solution (50 μL) for 20 min, washed with WB (3×200 μL), (washing buffer, PBS including 0.5% BSA and 0.05% Tween-20) and incubated with blocking solution (5% condensed milk in PBS) for 1 hr. Cells are then washed with WB (3×200 μL) and incubated for 1 hr at RT with anti-RSV (2F7) F-fusion protein antibody (40 μL) (mouse monoclonal, lot 798760, Cat. No. ab43812, Abcam) in 5% BSA in PBS-tween. After washing, cells are incubated with an HRP-conjugated secondary antibody solution (50 μL) in 5% BSA in PBS-Tween (lot 00053170, Cat. No. P0447, Dako) and then TMB substrate (50 μL) (substrate reagent pack, lot 269472, Cat. No. DY999, R&D Systems, Inc.) was added. This reaction is stopped by the addition of 2N H2SO4 (50 μL) and the resultant signal is determined colorimetrically (OD: 450 nm with a reference wavelength of 655 nm) in a microplate reader (Varioskan® Flash, ThermoFisher Scientific).
Cells are then washed and a 2.5% crystal violet solution (50 μL) (lot 8656, Cat. No. PL7000, Pro-Lab Diagnostics) is applied for 30 min. After washing with WB, 1% SDS in distilled water (100 μL) is added to each well, and plates are shaken lightly on the shaker for 1 hr prior to reading the absorbance at 595 nm. The measured OD450-655 readings are corrected to the cell number by dividing the OD450-655 by the OD595 readings. The percentage inhibition for each well is calculated and the IC50 value is calculated from the concentration-response curve generated from the serial dilutions of compound.

The target of a further data set is GSK3α (Homo sapiens (Human), UniProt P49840). Nature of the data set: GSK 3α enzyme inhibition (FRET, Z-LYTE). The format is biochemical. The procedure, abridged: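 Phosphorylation was read as the donor (coumarin) to acceptor (fluorescein) ratio after a 1 hr protease step destroying non-phosphorylated peptide. Before this, compound (4–0.004 μg/mL stocks) sat 2 hr at RT with GSK3α (500 ng/mL stock), followed by 1 hr kinase reaction with 8 μM peptide and 40 μM ATP stocks.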
Chain of GSK3α (P49840 whole entry): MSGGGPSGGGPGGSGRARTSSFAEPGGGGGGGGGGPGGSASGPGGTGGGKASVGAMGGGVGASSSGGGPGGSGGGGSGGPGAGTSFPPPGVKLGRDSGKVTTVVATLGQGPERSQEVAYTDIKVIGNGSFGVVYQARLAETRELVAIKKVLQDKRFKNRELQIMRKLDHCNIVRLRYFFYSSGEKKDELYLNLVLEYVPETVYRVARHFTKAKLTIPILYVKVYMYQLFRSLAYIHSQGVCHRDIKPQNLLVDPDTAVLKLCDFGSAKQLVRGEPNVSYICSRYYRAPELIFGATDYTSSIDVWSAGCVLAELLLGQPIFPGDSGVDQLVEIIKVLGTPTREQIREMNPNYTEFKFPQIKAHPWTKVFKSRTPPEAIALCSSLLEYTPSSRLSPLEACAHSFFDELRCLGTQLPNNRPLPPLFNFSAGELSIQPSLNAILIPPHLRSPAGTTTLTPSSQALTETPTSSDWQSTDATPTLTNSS

For data set [1], the system named is LPS-induced airways neutrophilia in mice. The data set is described as follows: LPS-induced neutrophil accumulation in mice. The format is in vivo. As to conditions: Test Substance at 0.2 mg/mL, intra tracheal, dosed 8 hr pre-LPS challenge.
Another data set concerns PBMC cells. The data set is described as follows: Cell mitosis assay. The format is cell-based, human. In a few lines: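 Healthy-donor PBMCs stimulated with 2% PHA for 48 hr, then exposed to varying compound concentrations for 20 hr, with demecolcine (0.1 μg/mL) added for the final 2 hr to arrest cells in metaphase. Mitotic cells stained with anti-phospho-histone 3 and propidium iodide and measured by flow cytometry, gating on lymphocytes.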

Another data set has as its target Syk (Homo sapiens (Human), UniProt P43405). Nature of the data set: Syk enzyme inhibition (FRET, Z-LYTE). It is filed as biochemical. In a few lines: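 Z-LYTE FRET kinase assay: enzyme (3000 or 2000 ng/mL stock, respectively) preincubated 2 h at RT with compound (4–0.004 μg/mL stocks), then FRET peptide plus ATP (800 μM stock for c-Src, 60 μM for Syk) added for 1 h. Protease development 1 h; phosphorylation from coumarin/fluorescein emission ratio.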

As to `Cc1ccc(-n2nc(C(C)(C)C)cc2NC(=O)Nc2ccc(Oc3ccnc(Nc4ccc5[nH]ncc5c4)n3)c3ccccc23)cc1` [Example 22, 1-(4-((2-((1H-indazol-5-yl)amino)pyrimidin-4-yl)oxy)naphthalen-1-yl)-3-(3-(tert-butyl)-1-(p-tolyl)-1H-pyrazol-5-yl)urea], the IC50 in the data set with RSV A2 is 0.0046 µM; against GSK3α it was more than 16 µM; against Syk, 0.026 µM. In data set [1], the “% Inhibition of neutrophil accumulation in BAL” value stood at 57%. The “Neutrophil numbers in BAL (+/−SEM)” value in data set [1] was 7.0 ± 1.2 ×10^5/mL. In the data set on PBMC cells, the “Mitosis Assay % inhibition in PBMC cells at 5 μg/mL” value was 52.7%.

The term IC50 denotes the concentration at which inhibition is half-maximal.
